Measured values taken from ChEMBL document CHEMBL4390668, “Discovery and Structural Optimization of Acridones as Broad-Spectrum Antimalarials” (J Med Chem, 2019).
The source made the active and inactive calls. The rule behind the calls is not given here.

Columns and labels:
Plasmodium falciparum [1] = experiment: Antimalarial activity against drug-resistant Plasmodium falciparum Dd2 harboring M133I mutant infected in human erythrocytes after 72 hrs by SYBR green 1-based fluorescence assay; assay type: functional, organism-based; conditions: Dd2, 72 h
Plasmodium falciparum [2] = experiment: Antimalarial activity against atovaquone-resistant Plasmodium falciparum Tm90-C2B infected in human erythrocytes by SYBR green 1-based fluorescence assay; assay type: functional, organism-based
[3] = Mutagenicity in Salmonella typhimurium TA98 assessed as increase in revertant colonies up to 10 uM in presence of S9 fraction by Ames test; assay type: toxicity, subcellular; conditions: salmonella enterica subsp. enterica serovar typhimurium
[4] = Selectivity index, ratio of IC50 for human HepG2 cells to IC50 for chloroquine-sensitive Plasmodium falciparum D6 infected in human erythrocytes; assay type: toxicity, cell-based; conditions: read-out: Ratio IC50
HepG2 = experiment: Cytotoxicity against human HepG2 cells measured after 24 to 36 hrs by resazurin dye based fluorescence assay; assay type: cell-based
[5] = Half life in mouse liver microsomes at 1 uM by LC-MS analysis; assay type: ADME, Microsome
[6] = Mutagenicity in Salmonella typhimurium TA100 assessed as increase in revertant colonies up to 10 uM in absence of S9 fraction by Ames test; assay type: toxicity; conditions: salmonella enterica subsp. enterica serovar typhimurium
Plasmodium yoelii = experiment: Antimalarial activity against blood stage Plasmodium yoelii MR4 MRA-428 infected in CF1 mouse assessed as suppression of parasitemia administered once daily via oral gavage for 4 days starting from 24 hrs post-infection and measured post-last dose by Giemsa-staining based microscopic analysis; assay type: functional
hERG (KCNH2) = hERG (KCNH2) (Homo sapiens, UniProt Q12809); experiment: Inhibition of human ERG expressed in CHOK1 cells at 10 uM by automated patch clamp method relative to control; assay type: cell-based; conditions: CHO-K1 cells that express hERG
Plasmodium falciparum [7] = experiment: Ratio of IC50 for drug-resistant Plasmodium falciparum 3D7 harboring A82T/V259L double mutant infected in human erythrocytes to IC50 for Plasmodium falciparum 3D7 infected in human erythrocytes; assay type: functional
[8] = Mutagenicity in Salmonella typhimurium TA98 assessed as increase in revertant colonies up to 10 uM in absence of S9 fraction by Ames test; assay type: toxicity; conditions: salmonella enterica subsp. enterica serovar typhimurium
Plasmodium falciparum [9] = experiment: Antimalarial activity against chloroquine-sensitive Plasmodium falciparum D6 infected in human erythrocytes by SYBR green 1-based fluorescence assay; assay type: functional, organism-based
Plasmodium falciparum [10] = experiment: Antimalarial activity against multidrug-resistant Plasmodium falciparum Dd2 infected in human erythrocytes by SYBR green 1-based fluorescence assay; assay type: functional, organism-based
Plasmodium falciparum [11] = experiment: Antimalarial activity against drug-resistant Plasmodium falciparum Dd2 harboring M133I/A138T double mutant infected in human erythrocytes after 72 hrs by SYBR green 1-based fluorescence assay; assay type: functional, organism-based; conditions: Dd2, 72 h
[12] = Mutagenicity in Salmonella typhimurium TA100 assessed as increase in revertant colonies up to 10 uM in presence of S9 fraction by Ames test; assay type: toxicity, subcellular; conditions: salmonella enterica subsp. enterica serovar typhimurium
Plasmodium falciparum [13] = experiment: Antimalarial activity against drug-resistant Plasmodium falciparum Dd2 harboring V259L mutant infected in human erythrocytes after 72 hrs by SYBR green 1-based fluorescence assay; assay type: functional, organism-based; conditions: Dd2, 72 h
Plasmodium falciparum [14] = experiment: Antimalarial activity against multidrug-resistant Plasmodium falciparum 7G8 infected in human erythrocytes by SYBR green 1-based fluorescence assay; assay type: functional, organism-based
Plasmodium falciparum [15] = experiment: Ratio of IC50 for drug-resistant Plasmodium falciparum Dd2 harboring M133I mutant infected in human erythrocytes to IC50 for multidrug-resistant Plasmodium falciparum Dd2 infected in human erythrocytes; assay type: functional
Plasmodium berghei [16] = experiment: Antimalarial activity against luciferase-expressing Plasmodium berghei ANKA 676m1cl1 sporozoites infected in human HepG2A16 cells measured after 45 hrs by luciferase-luciferin based reporter assay; assay type: functional, organism-based; conditions: ANKA 676m1cl1, HepG2A16, 45 h
[17] = Half life in human liver microsomes at 1 uM by LC-MS analysis; assay type: ADME, Microsome
Plasmodium falciparum [18] = experiment: Ratio of IC50 for drug-resistant Plasmodium falciparum Dd2 harboring M133I/A138T double mutant infected in human erythrocytes to IC50 for multidrug-resistant Plasmodium falciparum Dd2 infected in human erythrocytes; assay type: functional
Plasmodium berghei [19] = experiment: Antimalarial activity against liver stage luciferase-expressing Plasmodium berghei ANKA 676m1cl1 sporozoites infected in C57BL/6 mouse assessed as suppression of parasitemia at 40 to 160 mg/kg, po pretreated for 1 day followed by parasite infection and subsequent compound dosing for 2 days measured at 24 to 48 hrs post-infection by luciferin-based real-time imaging analysis; assay type: functional
Plasmodium falciparum [20] = experiment: Antimalarial activity against Plasmodium falciparum 3D7 infected in human erythrocytes after 72 hrs by SYBR green 1-based fluorescence assay; assay type: functional, organism-based; conditions: 3D7, 72 h
Plasmodium falciparum [21] = experiment: Ratio of IC50 for drug-resistant Plasmodium falciparum Dd2 harboring V259L mutant infected in human erythrocytes to IC50 for multidrug-resistant Plasmodium falciparum Dd2 infected in human erythrocytes; assay type: functional
Plasmodium falciparum [22] = experiment: Antimalarial activity against drug-resistant Plasmodium falciparum 3D7 harboring A82T/V259L double mutant infected in human erythrocytes after 72 hrs by SYBR green 1-based fluorescence assay; assay type: functional, organism-based; conditions: 3D7, 72 h
Plasmodium falciparum [23] = experiment: Inhibition of Plasmodium falciparum cytochrome b-c1

Chain of hERG (KCNH2) (Q12809 whole entry): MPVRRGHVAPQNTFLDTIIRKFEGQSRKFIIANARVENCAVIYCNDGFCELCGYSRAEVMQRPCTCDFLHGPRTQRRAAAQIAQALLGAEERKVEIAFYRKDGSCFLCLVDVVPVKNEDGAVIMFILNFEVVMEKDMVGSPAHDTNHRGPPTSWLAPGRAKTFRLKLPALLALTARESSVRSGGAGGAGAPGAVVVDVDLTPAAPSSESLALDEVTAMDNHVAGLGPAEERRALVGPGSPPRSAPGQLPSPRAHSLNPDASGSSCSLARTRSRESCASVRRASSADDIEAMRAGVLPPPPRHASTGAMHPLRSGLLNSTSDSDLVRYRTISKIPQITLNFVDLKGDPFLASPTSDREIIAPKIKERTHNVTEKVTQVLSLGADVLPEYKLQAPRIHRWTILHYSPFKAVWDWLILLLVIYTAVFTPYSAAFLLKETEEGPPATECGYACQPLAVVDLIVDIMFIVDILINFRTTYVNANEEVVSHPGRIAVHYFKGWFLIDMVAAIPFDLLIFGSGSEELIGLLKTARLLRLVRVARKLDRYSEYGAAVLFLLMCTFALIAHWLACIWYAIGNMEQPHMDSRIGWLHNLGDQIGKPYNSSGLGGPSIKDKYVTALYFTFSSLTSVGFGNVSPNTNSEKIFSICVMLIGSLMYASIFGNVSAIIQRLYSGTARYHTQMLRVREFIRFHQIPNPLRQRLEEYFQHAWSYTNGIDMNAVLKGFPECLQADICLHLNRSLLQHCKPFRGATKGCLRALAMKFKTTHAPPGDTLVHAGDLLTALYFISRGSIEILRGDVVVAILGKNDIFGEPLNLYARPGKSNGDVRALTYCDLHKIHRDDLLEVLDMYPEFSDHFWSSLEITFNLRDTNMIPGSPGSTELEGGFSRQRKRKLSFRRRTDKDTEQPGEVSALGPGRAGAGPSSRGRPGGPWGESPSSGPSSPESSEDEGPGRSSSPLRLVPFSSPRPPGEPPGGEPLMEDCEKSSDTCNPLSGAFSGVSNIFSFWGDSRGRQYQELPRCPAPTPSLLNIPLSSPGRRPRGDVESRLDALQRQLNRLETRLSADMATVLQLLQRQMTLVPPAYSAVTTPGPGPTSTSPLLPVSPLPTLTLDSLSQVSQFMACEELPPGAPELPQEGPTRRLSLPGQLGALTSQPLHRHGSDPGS

## CCN(CC)CCOc1ccc2c(=O)c3c(Cl)c(Cl)ccc3[nH]c2c1
Plasmodium falciparum [1]
  IC50: 0.242 µM
Plasmodium falciparum [2]
  IC50: 1.26 µM
[3]
  Activity: Non-Toxic
[4]
  selectivity ratio: 1440
HepG2
  IC50: 14.4 µM
[5]
  half-life at 1 µM: 50 min
[6]
  Activity: Non-Toxic
Plasmodium yoelii
  ED50: 1.8 mg/kg.day
  ED90: 8.8 mg/kg.day
hERG (KCNH2)
  inhibition at 10 µM: 78%
Plasmodium falciparum [7]
  Ratio IC50: 54
[8]
  Activity: Non-Toxic
Plasmodium falciparum [9]
  IC50: 0.01 µM
Plasmodium falciparum [10]
  IC50: 0.012 to 0.04 µM
Plasmodium falciparum [11]
  IC50: 1.68 µM
[12]
  Activity: Non-Toxic
Plasmodium falciparum [13]
  IC50: 1.44 µM
Plasmodium falciparum [14]
  IC50: 0.017 µM
Plasmodium falciparum [15]
  Ratio IC50: 6
Plasmodium berghei [16]
  IC50: 0.0055 µM
[17]
  half-life at 1 µM: > 60 min
Plasmodium falciparum [18]
  Ratio IC50: 42
Plasmodium berghei [19]
  Activity: 100%
Plasmodium falciparum [20]
  IC50: 0.028 µM
Plasmodium falciparum [21]
  Ratio IC50: 36
Plasmodium falciparum [22]
  IC50: 1.52 µM
Plasmodium falciparum [23]
  inhibition: inactive
